We go through two molecules from publication PMC3656124, “DNA Topoisomerase II Is Involved in Regulation of Cyst Wall Protein Genes and Differentiation in Giardia lamblia” (PLoS Neglected Tropical Diseases, 2013).

Broadly, the Km is the substrate concentration at which the rate is half of its maximum.

The target in data set [1] is T1, Topo II (Giardia duodenalis, UniProt E2RU90).
T1 construct: gene GL50803_0016975
T1 sequence (E2RU90 1-1491): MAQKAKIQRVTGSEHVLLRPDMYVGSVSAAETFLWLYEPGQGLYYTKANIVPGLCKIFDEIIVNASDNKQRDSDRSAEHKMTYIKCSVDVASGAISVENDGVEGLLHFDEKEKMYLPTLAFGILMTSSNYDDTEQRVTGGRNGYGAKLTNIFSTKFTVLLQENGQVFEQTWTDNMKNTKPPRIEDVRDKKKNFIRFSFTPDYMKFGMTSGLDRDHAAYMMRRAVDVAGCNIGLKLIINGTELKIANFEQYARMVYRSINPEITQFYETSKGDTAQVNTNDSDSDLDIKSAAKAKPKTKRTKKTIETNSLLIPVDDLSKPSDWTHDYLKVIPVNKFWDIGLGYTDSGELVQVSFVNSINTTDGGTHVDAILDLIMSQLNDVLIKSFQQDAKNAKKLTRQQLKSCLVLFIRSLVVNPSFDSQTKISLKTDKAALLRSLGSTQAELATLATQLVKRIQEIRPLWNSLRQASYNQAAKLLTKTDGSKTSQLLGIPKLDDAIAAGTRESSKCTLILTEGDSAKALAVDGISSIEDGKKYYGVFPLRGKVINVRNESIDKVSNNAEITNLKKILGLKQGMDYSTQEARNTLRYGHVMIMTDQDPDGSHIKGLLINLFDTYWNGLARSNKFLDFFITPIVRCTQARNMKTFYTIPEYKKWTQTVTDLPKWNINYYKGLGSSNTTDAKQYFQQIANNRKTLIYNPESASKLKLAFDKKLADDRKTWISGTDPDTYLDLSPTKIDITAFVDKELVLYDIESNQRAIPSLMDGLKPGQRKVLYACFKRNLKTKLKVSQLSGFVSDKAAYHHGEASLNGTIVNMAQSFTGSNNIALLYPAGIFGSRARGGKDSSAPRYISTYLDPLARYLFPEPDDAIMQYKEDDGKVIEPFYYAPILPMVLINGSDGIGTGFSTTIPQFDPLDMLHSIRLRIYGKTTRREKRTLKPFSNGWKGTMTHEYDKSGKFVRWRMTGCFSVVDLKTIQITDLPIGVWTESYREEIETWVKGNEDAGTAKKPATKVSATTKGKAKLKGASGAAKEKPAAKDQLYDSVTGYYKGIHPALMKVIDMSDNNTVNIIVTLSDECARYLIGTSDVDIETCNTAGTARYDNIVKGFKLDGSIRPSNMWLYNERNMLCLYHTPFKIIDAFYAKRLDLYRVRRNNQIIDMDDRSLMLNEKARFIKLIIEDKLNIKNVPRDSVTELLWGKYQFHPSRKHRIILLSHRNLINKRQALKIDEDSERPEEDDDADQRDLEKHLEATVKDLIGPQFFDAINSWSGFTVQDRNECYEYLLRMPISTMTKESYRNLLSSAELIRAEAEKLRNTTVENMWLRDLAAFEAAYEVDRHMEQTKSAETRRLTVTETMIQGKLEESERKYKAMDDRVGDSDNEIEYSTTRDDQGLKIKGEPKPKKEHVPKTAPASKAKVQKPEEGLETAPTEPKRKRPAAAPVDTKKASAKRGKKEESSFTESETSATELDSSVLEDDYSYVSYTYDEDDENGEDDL
The experiment in a line: pUC119 plasmid DNA cleavage assay, agarose gel. The format is biochemical. To be noted: 12 mM etoposide in Me2SO (Me2SO alone also raised cleavage); 5 mM Mg2+, pH 7.5, 37 °C; traps cleavage complex.

Substrate in data set [2]: Nc1ncnc2c1ncn2[C@@H]1O[C@H](COP(=O)(O)OP(=O)(O)OP(=O)(O)O)[C@@H](O)[C@H]1O
The experiment in a line: coupled pyruvate kinase/lactate dehydrogenase ATPase assay (NADH, A340), Lineweaver-Burk. The format is biochemical, Giardia duodenalis. Particulars: without DNA, 37 °C, 8 ng Topo II.

With `COc1cc([C@@H]2c3cc4c(cc3[C@@H](O[C@@H]3O[C@@H]5CO[C@@H](C)O[C@H]5[C@H](O)[C@H]3O)[C@H]3COC(=O)[C@H]23)OCO4)cc(OC)c1O` [etoposide], the “increase of DNA cleavage activity” value in data set [1] is “addition of etoposide slightly increased DNA cleavage activity of Topo II”.

B1: Topo II (Giardia lamblia ATCC 50803) (protein)
chain: T1 sequence (E2RU90 1-1491)
Regarding B1, the Km in data set [2] came out at 210 µM.
